Measurements: patent US20210122730A1, “GLUCOCORTICOID RECEPTOR MODULATORS” (ORIC Pharmaceuticals, Inc., priority 2017, published 2021)

How the values were obtained:
CYP2C8 = target: T1, CYP2C8 (Homo sapiens, UniProt P10632); assay: CYP Inhibition Assay (CYP2C8, human liver microsomes, paclitaxel substrate); assay type: in vitro ADME; conditions: pH 7.4; pooled human liver microsomes 0.1 mg/mL, probe substrate paclitaxel
T1 construct: Pooled human microsomes were obtained from Sekisui XenoTech, KS; tissue Sekisui XenoTech, KS; host or cells: pooled human liver microsomes
T1 sequence (P10632 1-490): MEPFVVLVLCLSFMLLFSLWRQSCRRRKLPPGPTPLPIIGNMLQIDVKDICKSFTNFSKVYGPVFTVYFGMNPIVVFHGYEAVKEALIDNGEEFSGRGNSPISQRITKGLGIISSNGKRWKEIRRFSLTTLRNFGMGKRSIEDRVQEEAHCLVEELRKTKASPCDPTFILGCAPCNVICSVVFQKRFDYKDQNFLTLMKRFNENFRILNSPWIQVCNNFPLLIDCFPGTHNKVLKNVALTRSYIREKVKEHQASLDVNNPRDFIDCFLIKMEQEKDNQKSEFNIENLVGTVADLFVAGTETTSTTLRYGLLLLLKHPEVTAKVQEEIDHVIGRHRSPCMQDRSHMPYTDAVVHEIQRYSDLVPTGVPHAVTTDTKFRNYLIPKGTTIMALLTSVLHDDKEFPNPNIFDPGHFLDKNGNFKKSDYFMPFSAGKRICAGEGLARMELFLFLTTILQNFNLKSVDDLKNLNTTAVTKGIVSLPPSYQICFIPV
Procedure, shortened: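 CYP2C8 activity read as 6α-hydroxypaclitaxel formation by LC-MS/MS, with % inhibition versus vehicle control. Reactions ran 5 min at 37° C, pH 7.4 phosphate buffer, 0.1 mg/mL pooled human liver microsomes, 1 mM NADPH, duplicate wells.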

PR = target: T2, PR (Homo sapiens, UniProt P06401); assay: In Vitro PR Luciferase Reporter Assay (antagonist mode, CHO-K1-PR-MMTV-Luc reporter cells); assay type: cell-based; conditions: antagonist assay with 20 nM Progesterone, 18-24 hours, read-out: PR antagonism IC50
T2 construct: expressed in transfected cells; host or cells: CHO-K1
T2 sequence (P06401 1-933): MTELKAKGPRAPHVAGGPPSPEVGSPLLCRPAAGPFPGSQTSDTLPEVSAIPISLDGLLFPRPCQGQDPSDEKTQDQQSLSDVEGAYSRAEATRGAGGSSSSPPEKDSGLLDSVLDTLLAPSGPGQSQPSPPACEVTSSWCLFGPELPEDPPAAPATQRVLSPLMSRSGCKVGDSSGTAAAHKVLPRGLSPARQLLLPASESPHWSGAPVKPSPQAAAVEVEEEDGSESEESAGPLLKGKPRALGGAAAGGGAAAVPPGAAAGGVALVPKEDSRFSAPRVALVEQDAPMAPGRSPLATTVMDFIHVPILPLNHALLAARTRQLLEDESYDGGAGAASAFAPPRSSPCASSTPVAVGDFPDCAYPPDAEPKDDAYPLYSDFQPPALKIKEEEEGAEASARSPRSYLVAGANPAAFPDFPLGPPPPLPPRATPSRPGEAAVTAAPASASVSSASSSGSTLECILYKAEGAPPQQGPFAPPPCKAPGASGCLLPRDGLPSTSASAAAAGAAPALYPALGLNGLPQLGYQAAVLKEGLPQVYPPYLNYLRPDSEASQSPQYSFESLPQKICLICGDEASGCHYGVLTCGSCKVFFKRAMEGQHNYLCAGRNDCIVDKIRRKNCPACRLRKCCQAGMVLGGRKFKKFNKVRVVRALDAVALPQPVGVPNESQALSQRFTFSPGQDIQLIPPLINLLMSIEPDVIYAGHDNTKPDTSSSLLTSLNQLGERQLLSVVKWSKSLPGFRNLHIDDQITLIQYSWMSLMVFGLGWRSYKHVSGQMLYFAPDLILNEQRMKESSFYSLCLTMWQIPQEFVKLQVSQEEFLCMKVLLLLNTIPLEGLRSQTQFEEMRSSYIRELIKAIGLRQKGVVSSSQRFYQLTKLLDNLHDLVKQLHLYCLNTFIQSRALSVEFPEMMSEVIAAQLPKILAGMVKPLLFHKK
From the text: Example C: In Vitro PR Luciferase Reporter Assay
Cell Line: CHO-KI-PR-MMTV-Luc reporter cells
Culture Media: DMEM (with phenol red)+1000FBS
Assay Media: DMEM (without phenol red)+1000CSS
Culture CHO-Kl-PR-MMTV-Luc reporter cells in 15 cm plates in Culture Media at conditions less than 90% confluence.
Prepared 200×DMSO 1:8 serial dilutions of control and test compounds in 96-well non-sterile V bottom plate in DMSO, 8 serial dilutions for each compound.
Prepared 5× Assay Media diluted compound serial dilutions in 96-well non-sterile V bottom plate: Add 97.5 μL/well of Assay Media into 96-well then add 2.5 μl of 200× concentration of compounds and mix well.
Added compounds: 5 μl of assay media diluted compounds were added to appropriate wells and followed a quick spin (1000 rpm, 10 sec) to bring media and cells to the bottom of plate. The plates were covered with SealMate film to avoid evaporation and placed in 37° C. incubator for approximately 18-24 hours.
Read plates: Equilibrated appropriate amount of Promega One-Glo luciferase reagent to room temperature. Removed the plates from incubator and added 25 μL of One-Glo luciferase reagent/well by multiple channel pipette and read the plates with Tecan F500 luminometer within 3 minutes.
The ability of exemplary compounds disclosed herein to inhibit PR activity was quantified and the respective IC50 value was determined. Table 4 provides the cellular IC50 values of exemplary compounds disclosed herein.

With Cn1ccc(S(=O)(=O)N(C2CC(F)(F)C2)[C@H]2CCC3=Cc4c(cnn4-c4ccc(F)cc4)C[C@]3(C(=O)c3ncc(C(F)(F)F)s3)C2)n1 [Example 270, N-(3,3-difluorocyclobutyl)-N-((4aS,6S)-1-(4-fluorophenyl)-4a-(5-(trifluoromethyl)thiazole-2-carbonyl)-4,4a,5,6,7,8-hexahydro-1H-benzo[f]indazol-6-yl)-1-methyl-1H-pyrazole-3-sulfonamide] the inhibition at 5 min (CYP2C8) was no more than 25% and the IC50 (PR) was 3.6 µM.
In the case of Cn1ccc(S(=O)(=O)N([C@H]2CCC3=Cc4c(cnn4-c4ccc(F)cc4)C[C@]3(C(=O)c3ncc(C(F)(F)F)s3)C2)[C@H]2C[C@@](C)(O)C2)n1 [Example 277, N-((4aS,6S)-1-(4-fluorophenyl)-4a-(5-(trifluoromethyl)thiazole-2-carbonyl)-4,4a,5,6,7,8-hexahydro-1H-benzo[f]indazol-6-yl)-N-((1s,3R)-3-hydroxy-3-methylcyclobutyl)-1-methyl-1H-pyrazole-3-sulfonamide], the inhibition at 5 min (CYP2C8) is reported as no more than 25% and the IC50 (PR) is reported as greater than 5 µM.
Cn1cnc(S(=O)(=O)N(C2CC2)[C@H]2CCC3=Cc4c(cnn4-c4ccc(F)cc4)C[C@]3(C(=O)c3ncc(C(F)(F)F)s3)C2)n1 [Example 305, N-cyclopropyl-N-((4aS,6S)-1-(4-fluorophenyl)-4a-(5-(trifluoromethyl)thiazole-2-carbonyl)-4,4a,5,6,7,8-hexahydro-1H-benzo[f]indazol-6-yl)-1-methyl-1H-1,2,4-triazole-3-sulfonamide] showed an inhibition at 5 min (CYP2C8) of 25 to 50% and an IC50 (PR) greater than 5 µM.
For Cn1cnc(S(=O)(=O)N(C2CC2)[C@H]2CCC3=Cc4c(cnn4-c4ccc(F)cc4)C[C@]3(C(=O)c3cc(C(F)(F)F)ccn3)C2)n1 [Example 306, N-cyclopropyl-N-((4aS,6S)-1-(4-fluorophenyl)-4a-(4-(trifluoromethyl)picolinoyl)-4,4a,5,6,7,8-hexahydro-1H-benzo[f]indazol-6-yl)-1-methyl-1H-1,2,4-triazole-3-sulfonamide], the inhibition at 5 min (CYP2C8) was no more than 25% and the IC50 (PR) was greater than 5 µM.
